In article PMC12250071, “Cloning, Expression and Functional Characterization of V. vinifera CAT2 Arginine Transporter” (International Journal of Molecular Sciences, 2025):

Target: T1, VvCAT2
T1 construct: gene CAT2; full-length, C-terminal 6His, reconstituted in proteoliposomes
Experiment: competitive inhibition of [3H]arginine uptake in proteoliposomes with purified transporter (Lineweaver-Burk); also transported as [3H]ornithine
Assay type: biochemical, Vitis vinifera

## NCCC[C@H](N)C(=O)O [ornithine]
  Ki: 2200 ± 500 µM
